{
  "source": "the supplement of paper PMC10307832",
  "assay_in_all_cases": "relative viability (nuclei count vs DMSO), 5 days (fraction); higher = more cells survive",
  "key": {"[1]": {"compound": "C[C@]1(c2nc3c(C(N)=O)cccc3[nH]2)CCCN1 [Veliparib] + CC(=O)Nc1cccc(-n2c(=O)n(C3CC3)c(=O)c3c(Nc4ccc(I)cc4F)n(C)c(=O)c(C)c32)c1 [Trametinib] (partner 0.02 µM)", "procedure,_shortened": "(§1)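 Values are medians from duplicate plates. Each reflects relative viability, defined as the nuclei count of treated wells over that of vehicle wells. Lung cancer cell lines in 1536-well plates were pin-tool dosed one day after seeding with one drug alone or with a fixed anchor-drug dose plus five library-drug doses (not always all listed) in √10 steps, then fixed, stained and imaged at 4× after 5 days.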"}, "[2]": {"compound": "C[C@]1(c2nc3c(C(N)=O)cccc3[nH]2)CCCN1 [Veliparib] + CC1(C)CCC(c2ccc(Cl)cc2)=C(CN2CCN(c3ccc(C(=O)NS(=O)(=O)c4ccc(N[C@H](CCN5CCOCC5)CSc5ccccc5)c(S(=O)(=O)C(F)(F)F)c4)cc3)CC2)C1 [Navitoclax] (partner 0.5 µM)", "procedure,_shortened": "as §1"}, "[3]": {"compound": "COC1=CC=C(C=C1)CN2C=CC3=C2C=C(C=C3)C(=O)NO + COc1cc2c(Oc3ccc(NC(=O)C4(C(=O)Nc5ccc(F)cc5)CC4)cc3F)ccnc2cc1OCCCN1CCOCC1 [Foretinib] (partner 0.25 µM)", "procedure,_shortened": "as §1"}, "[4]": {"compound": "COC1=CC=C(C=C1)CN2C=CC3=C2C=C(C=C3)C(=O)NO + O=C(CCCCCCC(=O)Nc1ccccc1)NO [Vorinostat] (partner 1 µM)", "procedure,_shortened": "as §1"}},
  "data": [
    {"cell line": "NCI-H1975", "values": [
      {"measurement": "relative viability", "setting": "[1]; first compound 0.02 µM", "value": 0.339},
      {"measurement": "relative viability", "setting": "[1]; first compound 0.06325 µM", "value": 0.335},
      {"measurement": "relative viability", "setting": "[1]; first compound 0.2 µM", "value": 0.329},
      {"measurement": "relative viability", "setting": "[1]; first compound 0.6325 µM", "value": 0.344},
      {"measurement": "relative viability", "setting": "[1]; first compound 2 µM", "value": 0.331},
      {"measurement": "relative viability", "setting": "[2]; first compound 0.02 µM", "value": 1.07},
      {"measurement": "relative viability", "setting": "[2]; first compound 0.06325 µM", "value": 1.14},
      {"measurement": "relative viability", "setting": "[2]; first compound 0.2 µM", "value": 1.22},
      {"measurement": "relative viability", "setting": "[2]; first compound 0.6325 µM", "value": 0.942},
      {"measurement": "relative viability", "setting": "[2]; first compound 2 µM", "value": 0.981},
      {"measurement": "relative viability", "setting": "[3]; first compound 0.08 µM", "value": 0.931},
      {"measurement": "relative viability", "setting": "[3]; first compound 0.253 µM", "value": 1.14},
      {"measurement": "relative viability", "setting": "[3]; first compound 0.8 µM", "value": 0.934},
      {"measurement": "relative viability", "setting": "[3]; first compound 2.53 µM", "value": 0.968},
      {"measurement": "relative viability", "setting": "[3]; first compound 8 µM", "value": 0.926},
      {"measurement": "relative viability", "setting": "[4]; first compound 0.08 µM", "value": 0.676},
      {"measurement": "relative viability", "setting": "[4]; first compound 0.253 µM", "value": 0.779},
      {"measurement": "relative viability", "setting": "[4]; first compound 0.8 µM", "value": 0.752},
      {"measurement": "relative viability", "setting": "[4]; first compound 2.53 µM", "value": 0.74},
      {"measurement": "relative viability", "setting": "[4]; first compound 8 µM", "value": 0.701}
    ]},
    {"cell line": "NCI-H1993", "values": [
      {"measurement": "relative viability", "setting": "[1]; first compound 0.06325 µM", "value": 0.63},
      {"measurement": "relative viability", "setting": "[1]; first compound 0.2 µM", "value": 0.519},
      {"measurement": "relative viability", "setting": "[1]; first compound 0.6325 µM", "value": 0.425},
      {"measurement": "relative viability", "setting": "[1]; first compound 2 µM", "value": 0.552},
      {"measurement": "relative viability", "setting": "[2]; first compound 0.02 µM", "value": 0.939},
      {"measurement": "relative viability", "setting": "[2]; first compound 0.06325 µM", "value": 0.898},
      {"measurement": "relative viability", "setting": "[2]; first compound 0.2 µM", "value": 1.07},
      {"measurement": "relative viability", "setting": "[2]; first compound 0.6325 µM", "value": 0.902},
      {"measurement": "relative viability", "setting": "[2]; first compound 2 µM", "value": 0.959},
      {"measurement": "relative viability", "setting": "[3]; first compound 0.08 µM", "value": 0.552},
      {"measurement": "relative viability", "setting": "[3]; first compound 0.253 µM", "value": 0.818},
      {"measurement": "relative viability", "setting": "[3]; first compound 0.8 µM", "value": 0.836},
      {"measurement": "relative viability", "setting": "[3]; first compound 2.53 µM", "value": 0.892},
      {"measurement": "relative viability", "setting": "[3]; first compound 8 µM", "value": 0.777},
      {"measurement": "relative viability", "setting": "[4]; first compound 0.08 µM", "value": 0.527},
      {"measurement": "relative viability", "setting": "[4]; first compound 0.253 µM", "value": 1.21},
      {"measurement": "relative viability", "setting": "[4]; first compound 0.8 µM", "value": 0.901},
      {"measurement": "relative viability", "setting": "[4]; first compound 2.53 µM", "value": 0.842},
      {"measurement": "relative viability", "setting": "[4]; first compound 8 µM", "value": 0.73}
    ]},
    {"cell line": "NCI-H2009", "values": [
      {"measurement": "relative viability", "setting": "[1]; first compound 0.02 µM", "value": 0.289},
      {"measurement": "relative viability", "setting": "[1]; first compound 0.06325 µM", "value": 0.291},
      {"measurement": "relative viability", "setting": "[1]; first compound 0.2 µM", "value": 0.316},
      {"measurement": "relative viability", "setting": "[1]; first compound 0.6325 µM", "value": 0.302},
      {"measurement": "relative viability", "setting": "[1]; first compound 2 µM", "value": 0.33},
      {"measurement": "relative viability", "setting": "[2]; first compound 0.02 µM", "value": 1.22},
      {"measurement": "relative viability", "setting": "[2]; first compound 0.06325 µM", "value": 1.07},
      {"measurement": "relative viability", "setting": "[2]; first compound 0.2 µM", "value": 1.2},
      {"measurement": "relative viability", "setting": "[2]; first compound 0.6325 µM", "value": 1.1},
      {"measurement": "relative viability", "setting": "[2]; first compound 2 µM", "value": 1.31},
      {"measurement": "relative viability", "setting": "[3]; first compound 0.08 µM", "value": 0.931},
      {"measurement": "relative viability", "setting": "[3]; first compound 0.253 µM", "value": 1.3},
      {"measurement": "relative viability", "setting": "[3]; first compound 0.8 µM", "value": 1.17},
      {"measurement": "relative viability", "setting": "[3]; first compound 2.53 µM", "value": 1.27},
      {"measurement": "relative viability", "setting": "[3]; first compound 8 µM", "value": 1.24},
      {"measurement": "relative viability", "setting": "[4]; first compound 0.08 µM", "value": 0.498},
      {"measurement": "relative viability", "setting": "[4]; first compound 0.253 µM", "value": 0.751},
      {"measurement": "relative viability", "setting": "[4]; first compound 0.8 µM", "value": 0.722},
      {"measurement": "relative viability", "setting": "[4]; first compound 2.53 µM", "value": 0.75},
      {"measurement": "relative viability", "setting": "[4]; first compound 8 µM", "value": 0.708}
    ]},
    {"cell line": "NCI-H2023", "values": [
      {"measurement": "relative viability", "setting": "[1]; first compound 0.06325 µM", "value": 0.636},
      {"measurement": "relative viability", "setting": "[1]; first compound 0.2 µM", "value": 0.563},
      {"measurement": "relative viability", "setting": "[1]; first compound 0.6325 µM", "value": 0.563},
      {"measurement": "relative viability", "setting": "[1]; first compound 2 µM", "value": 0.477},
      {"measurement": "relative viability", "setting": "[2]; first compound 0.02 µM", "value": 1.04},
      {"measurement": "relative viability", "setting": "[2]; first compound 0.06325 µM", "value": 0.948},
      {"measurement": "relative viability", "setting": "[2]; first compound 0.2 µM", "value": 0.922},
      {"measurement": "relative viability", "setting": "[2]; first compound 0.6325 µM", "value": 0.926},
      {"measurement": "relative viability", "setting": "[2]; first compound 2 µM", "value": 0.943},
      {"measurement": "relative viability", "setting": "[3]; first compound 0.08 µM", "value": 0.489},
      {"measurement": "relative viability", "setting": "[3]; first compound 0.253 µM", "value": 0.899},
      {"measurement": "relative viability", "setting": "[3]; first compound 0.8 µM", "value": 0.778},
      {"measurement": "relative viability", "setting": "[3]; first compound 2.53 µM", "value": 0.697},
      {"measurement": "relative viability", "setting": "[3]; first compound 8 µM", "value": 0.722},
      {"measurement": "relative viability", "setting": "[4]; first compound 0.08 µM", "value": 0.256},
      {"measurement": "relative viability", "setting": "[4]; first compound 0.253 µM", "value": 0.631},
      {"measurement": "relative viability", "setting": "[4]; first compound 0.8 µM", "value": 0.619},
      {"measurement": "relative viability", "setting": "[4]; first compound 2.53 µM", "value": 0.647},
      {"measurement": "relative viability", "setting": "[4]; first compound 8 µM", "value": 0.654}
    ]}
  ]
}
